According to the supplement of paper PMC10307832:

Legend:
Test in all cases: relative viability (nuclei count vs DMSO), 5 days (fraction); higher = more cells survive
NCI-H1944 = test system: NCI-H1944
Method in brief: (§1)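 Lung cancer cell lines were pin-tool dosed in 1536-well plates on the day after seeding, with either a lone drug or a fixed anchor-drug dose plus five library-drug doses (not always all listed) in √10 steps. Nuclei were counted on 4× images after 5 days. Relative viability is the ratio of treated-well to vehicle-well nuclei counts, with each value a median of duplicate plates.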

NCI-H650 = test system: NCI-H650
Method in brief: as §1

NCI-H2023 = test system: NCI-H2023
Method in brief: as §1

NCI-H1793 = test system: NCI-H1793
Method in brief: as §1

H3255 = test system: H3255
Method in brief: as §1

EMC-BAC-2 = test system: EMC-BAC-2
Method in brief: as §1

HCC-44 = test system: HCC-44
Method in brief: as §1

NCI-H2405 = test system: NCI-H2405
Method in brief: as §1

LU99A = test system: LU99A
Method in brief: as §1

SK-MES-1 = test system: SK-MES-1
Method in brief: as §1

NCI-H1651 = test system: NCI-H1651
Method in brief: as §1

NCI-H2085 = test system: NCI-H2085
Method in brief: as §1

HCC-827 = test system: HCC-827
Method in brief: as §1

EPLC-272H = test system: EPLC-272H
Method in brief: as §1

NCI-H1395 = test system: NCI-H1395
Method in brief: as §1

NCI-H520 = test system: NCI-H520
Method in brief: as §1

NCI-H838 = test system: NCI-H838
Method in brief: as §1

LCLC-103H = test system: LCLC-103H
Method in brief: as §1

COR-L23 = test system: COR-L23
Method in brief: as §1

ChaGo-K-1 = test system: ChaGo-K-1
Method in brief: as §1

NCI-H2087 = test system: NCI-H2087
Method in brief: as §1

O=c1cc(-c2cccc3c2Sc2ccccc2S3)oc(N2CCOCC2)c1 + O=C(CCCCCCC(=O)Nc1ccccc1)NO [Vorinostat] (partner 1 µM)
relative viability (NCI-H1944; first compound 0.08 µM): 0.58 | relative viability (NCI-H1944; first compound 0.253 µM): 0.586 | relative viability (NCI-H1944; first compound 0.8 µM): 0.513 | relative viability (NCI-H1944; first compound 2.53 µM): 0.544 | relative viability (NCI-H1944; first compound 8 µM): 0.596 | relative viability (NCI-H650; first compound 0.08 µM): 0.473 | relative viability (NCI-H650; first compound 0.253 µM): 0.478 | relative viability (NCI-H650; first compound 0.8 µM): 0.393 | relative viability (NCI-H650; first compound 2.53 µM): 0.345 | relative viability (NCI-H650; first compound 8 µM): 0.458 | relative viability (NCI-H2023; first compound 0.08 µM): 0.707 | relative viability (NCI-H2023; first compound 0.253 µM): 0.752 | relative viability (NCI-H2023; first compound 0.8 µM): 0.718 | relative viability (NCI-H2023; first compound 2.53 µM): 0.583 | relative viability (NCI-H2023; first compound 8 µM): 0.451 | relative viability (NCI-H1793; first compound 0.08 µM): 0.653 | relative viability (NCI-H1793; first compound 0.253 µM): 0.846 | relative viability (NCI-H1793; first compound 0.8 µM): 0.541 | relative viability (NCI-H1793; first compound 2.53 µM): 0.627 | relative viability (NCI-H1793; first compound 8 µM): 0.804 | relative viability (H3255; first compound 0.08 µM): 0.811 | relative viability (H3255; first compound 0.253 µM): 0.78 | relative viability (H3255; first compound 0.8 µM): 0.805 | relative viability (H3255; first compound 2.53 µM): 0.878 | relative viability (H3255; first compound 8 µM): 0.896 | relative viability (EMC-BAC-2; first compound 0.08 µM): 0.35 | relative viability (EMC-BAC-2; first compound 0.253 µM): 0.471 | relative viability (EMC-BAC-2; first compound 0.8 µM): 0.524 | relative viability (EMC-BAC-2; first compound 2.53 µM): 0.607 | relative viability (EMC-BAC-2; first compound 8 µM): 0.48 | relative viability (HCC-44; first compound 0.08 µM): 1.13 | relative viability (HCC-44; first compound 0.253 µM): 1.05 | relative viability (HCC-44; first compound 0.8 µM): 1.17 | relative viability (HCC-44; first compound 2.53 µM): 1.05 | relative viability (HCC-44; first compound 8 µM): 1.08 | relative viability (NCI-H2405; first compound 0.08 µM): 0.925 | relative viability (NCI-H2405; first compound 0.253 µM): 0.99 | relative viability (NCI-H2405; first compound 0.8 µM): 1.06 | relative viability (NCI-H2405; first compound 2.53 µM): 0.842 | relative viability (NCI-H2405; first compound 8 µM): 0.983 | relative viability (LU99A; first compound 0.08 µM): 0.429 | relative viability (LU99A; first compound 0.253 µM): 0.499 | relative viability (LU99A; first compound 0.8 µM): 0.639 | relative viability (LU99A; first compound 2.53 µM): 0.514 | relative viability (LU99A; first compound 8 µM): 0.669 | relative viability (SK-MES-1; first compound 0.08 µM): 1.15 | relative viability (SK-MES-1; first compound 0.253 µM): 1.23 | relative viability (SK-MES-1; first compound 0.8 µM): 1.01 | relative viability (SK-MES-1; first compound 2.53 µM): 0.975 | relative viability (SK-MES-1; first compound 8 µM): 0.939 | relative viability (NCI-H1651; first compound 0.08 µM): 0.585 | relative viability (NCI-H1651; first compound 0.253 µM): 0.638 | relative viability (NCI-H1651; first compound 0.8 µM): 0.571 | relative viability (NCI-H1651; first compound 2.53 µM): 0.519 | relative viability (NCI-H1651; first compound 8 µM): 0.578 | relative viability (NCI-H2085; first compound 0.08 µM): 0.739 | relative viability (NCI-H2085; first compound 0.253 µM): 0.825 | relative viability (NCI-H2085; first compound 0.8 µM): 0.687 | relative viability (NCI-H2085; first compound 2.53 µM): 0.759 | relative viability (NCI-H2085; first compound 8 µM): 0.612 | relative viability (HCC-827; first compound 0.08 µM): 0.768 | relative viability (HCC-827; first compound 0.253 µM): 0.945 | relative viability (HCC-827; first compound 0.8 µM): 0.77 | relative viability (HCC-827; first compound 2.53 µM): 0.476 | relative viability (HCC-827; first compound 8 µM): 0.923 | relative viability (EPLC-272H; first compound 0.08 µM): 0.449 | relative viability (EPLC-272H; first compound 0.253 µM): 0.363 | relative viability (EPLC-272H; first compound 0.8 µM): 0.291 | relative viability (EPLC-272H; first compound 2.53 µM): 0.629 | relative viability (EPLC-272H; first compound 8 µM): 0.441 | relative viability (NCI-H1395; first compound 0.08 µM): 0.636 | relative viability (NCI-H1395; first compound 0.253 µM): 0.625 | relative viability (NCI-H1395; first compound 0.8 µM): 0.777 | relative viability (NCI-H1395; first compound 2.53 µM): 0.669 | relative viability (NCI-H1395; first compound 8 µM): 0.759 | relative viability (NCI-H520; first compound 0.08 µM): 0.704 | relative viability (NCI-H520; first compound 0.253 µM): 0.856 | relative viability (NCI-H520; first compound 0.8 µM): 0.741 | relative viability (NCI-H520; first compound 2.53 µM): 0.787 | relative viability (NCI-H520; first compound 8 µM): 0.648 | relative viability (NCI-H838; first compound 0.08 µM): 0.746 | relative viability (NCI-H838; first compound 0.253 µM): 0.739 | relative viability (NCI-H838; first compound 0.8 µM): 0.831 | relative viability (NCI-H838; first compound 2.53 µM): 0.636 | relative viability (NCI-H838; first compound 8 µM): 0.535 | relative viability (LCLC-103H; first compound 0.08 µM): 0.757 | relative viability (LCLC-103H; first compound 0.253 µM): 0.814 | relative viability (LCLC-103H; first compound 0.8 µM): 0.66 | relative viability (LCLC-103H; first compound 2.53 µM): 0.727 | relative viability (LCLC-103H; first compound 8 µM): 0.864 | relative viability (COR-L23; first compound 0.08 µM): 0.472 | relative viability (COR-L23; first compound 0.253 µM): 0.457 | relative viability (COR-L23; first compound 0.8 µM): 0.397 | relative viability (COR-L23; first compound 2.53 µM): 0.442 | relative viability (COR-L23; first compound 8 µM): 0.446 | relative viability (ChaGo-K-1; first compound 0.08 µM): 0.765 | relative viability (ChaGo-K-1; first compound 0.253 µM): 0.859 | relative viability (ChaGo-K-1; first compound 0.8 µM): 0.876 | relative viability (ChaGo-K-1; first compound 2.53 µM): 0.753 | relative viability (ChaGo-K-1; first compound 8 µM): 0.847 | relative viability (NCI-H2087; first compound 0.08 µM): 0.862 | relative viability (NCI-H2087; first compound 0.253 µM): 0.757 | relative viability (NCI-H2087; first compound 0.8 µM): 1.09 | relative viability (NCI-H2087; first compound 2.53 µM): 0.727 | relative viability (NCI-H2087; first compound 8 µM): 0.917
